Assay results from BindingDB's records for patent US20230348450 (Genzyme, 2023).
Where “and” joins values, the source holds several entries; their conditions need not be identical. Equal values may be shown once.

Target: T1, Bisphosphoglycerate mutase (Homo sapiens, UniProt P07738)
T1 sequence (P07738 whole entry): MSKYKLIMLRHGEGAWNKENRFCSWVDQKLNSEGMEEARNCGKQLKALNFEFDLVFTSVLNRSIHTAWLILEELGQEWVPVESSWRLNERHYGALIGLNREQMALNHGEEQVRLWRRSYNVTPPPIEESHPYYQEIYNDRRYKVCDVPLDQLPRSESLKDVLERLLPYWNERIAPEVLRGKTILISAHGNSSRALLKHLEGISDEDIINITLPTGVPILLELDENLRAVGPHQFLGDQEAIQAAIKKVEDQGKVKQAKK
Experiment: BPGM Synthase Assay
Procedure: To the assay plate was added Enzyme Solution (20 uL) to columns 2-22 and 24 of the assay plate. To columns 1 and 23 was added GAPDH Solution (20 uL). A separate compound plate was prepared at the desired concentrations and all wells were normalized with 5% DMSO. The compound plate was incubated for 30 minutes at RT. Next, the substrate solution (20 μL) was dispensed to all reaction wells and the plate was incubated for 60 minutes at RT. Koningic acid (1 μL) was added and the plate was incubated for 10 minutes at RT. […] Next, Resazurin Solution (10 μL) was added to all reaction wells and the plate was incubated for 30 minutes at RT.

Row | SMILES | IC50
1 | Cc1nc(COc2ccc(F)cn2)sc1-c1cccc(-c2ccc(C(=O)O)c(O)c2)c1 [US20230348450, Example 1] | 1500 nM and 1000 nM
2 | Cc1nc(COc2ncccn2)sc1-c1cccc(-c2ccc(S(=O)(=O)CC(=O)O)cc2)n1 [US20230348450, Example 2] | 146 nM
3 | Cc1nc(COc2ncccn2)sc1-c1cccc(-c2cc(C(=O)O)cs2)n1 [US20230348450, Example 3] | 260 nM and 180 nM
4 | Cc1nc(COc2ccccn2)sc1-c1cccc(-c2ccc(C(=O)O)c(O)c2)c1 [US20230348450, Example 4] | 590 nM and 710 nM
5 | Cc1nc(COc2ncccn2)sc1-c1cccc(-c2ccc(C(=O)O)c(O)c2)n1 [US20230348450, Example 6] | 70 nM
6 | Cc1nc(COCC(=O)N(C)C)sc1-c1csc(-c2cc(O)c(C(=O)O)cc2F)n1 [US20230348450, Example 7] | 60 nM
7 | COC(=O)NCc1nc(C)c(-c2nsc(-c3cc(O)c(C(=O)O)cc3F)n2)s1 [US20230348450, Example 8] | 95 nM
8 | COC(=O)NCc1nc(C)c(-c2cccc(-c3ccc(C(=O)O)c(O)c3)n2)s1 [US20230348450, Example 9] | 317 nM
9 | CC(=O)NCc1nc(C)c(-c2csc(-c3cc(O)c(C(=O)O)cc3F)n2)s1 [US20230348450, Example 10] | 95 nM
10 | COC(=O)NCc1nc(C)c(-c2csc(-c3cc(O)c(C(=O)O)cc3F)n2)s1 [US20230348450, Example 209] | 63 nM and 59 nM
